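All cell lines were grown in 96-well plates and treated with compound for 48 hours. GI50: concentration for 50% inhibition of growth.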 The source made the active and inactive calls. No stated cut-off is given here; in the data, active = GI50 up to about 1.1 µM and inactive = higher.
Key:
Assay in all cases: DTP human tumour cell line panel, 48 h
A498 = tested on: A498
ACHN = tested on: ACHN
CAKI-1 = tested on: CAKI-1
DU-145 = tested on: DU-145
HOP-92 = tested on: HOP-92
K562 = tested on: K562
KM12 = tested on: KM12
M14 = tested on: M14
MCF7 = tested on: MCF7
MDA-MB-435 = tested on: MDA-MB-435
NCI/ADR-RES = tested on: NCI/ADR-RES
OVCAR-3 = tested on: OVCAR-3
RXF 393 = tested on: RXF 393
SF-295 = tested on: SF-295
SK-MEL-2 = tested on: SK-MEL-2
SK-MEL-5 = tested on: SK-MEL-5
SN12C = tested on: SN12C
SNB-75 = tested on: SNB-75
SR = tested on: SR
UO-31 = tested on: UO-31

Structure (SMILES) | GI50 (A498) | GI50 (ACHN) | GI50 (CAKI-1) | GI50 (DU-145) | GI50 (HOP-92) | GI50 (K562) | GI50 (KM12) | GI50 (M14) | GI50 (MCF7) | GI50 (MDA-MB-435) | GI50 (NCI/ADR-RES) | GI50 (OVCAR-3) | GI50 (RXF 393) | GI50 (SF-295) | GI50 (SK-MEL-2) | GI50 (SK-MEL-5) | GI50 (SN12C) | GI50 (SNB-75) | GI50 (SR) | GI50 (UO-31)
COc1ccc2[nH]c3c(C)c4c(c(C)c3c2c1)CN(C)C=C4 | 1.36 µM (inactive) | 13.2 µM (inactive) | 9.23 µM (inactive) | 5.37 µM (inactive) | 2.79 µM (inactive) | 3.44 µM (inactive) | 1.35 µM (inactive) | 8.77 µM (inactive) | 4.53 µM (inactive) | 21.2 µM (inactive) | 91.8 µM (inactive) | 4.53 µM (inactive) | 7.21 µM (inactive) | 0.293 µM (active) | 2.62 µM (inactive) | 1.98 µM (inactive) | 0.164 µM (active) | 0.226 µM (active) | 0.526 µM (active) | 24.5 µM (inactive)
CCC/C(Cl)=N/OC(=O)Nc1cc(C(F)(F)F)ccc1OC | 15.1 µM (inactive) | 13.2 µM (inactive) | 4.78 µM (inactive) | 16.3 µM (inactive) | 2.43 µM (inactive) | 1.79 µM (inactive) | 18.1 µM (inactive) | 4.4 µM (inactive) | 12.4 µM (inactive) | 13.4 µM (inactive) | 17.5 µM (inactive) | 16.4 µM (inactive) | 6.31 µM (inactive) | 18.3 µM (inactive) | 16.1 µM (inactive) | 7.93 µM (inactive) | 14.3 µM (inactive) | 15.1 µM (inactive) | 2.79 µM (inactive) | 16.4 µM (inactive)
c1ccc(COC2C3COC(O3)C(OCc3ccccc3)C2OCc2ccccc2)cc1 (stereo not given) | > 100 µM (inactive) | 27.5 µM (inactive) | > 100 µM (inactive) | 78.5 µM (inactive) | 67.1 µM (inactive) | 27.9 µM (inactive) | 29.6 µM (inactive) | 32.2 µM (inactive) | 39.1 µM (inactive) | 18.2 µM (inactive) | 32.1 µM (inactive) | 57.8 µM (inactive) | 45.4 µM (inactive) | 94.4 µM (inactive) | 54.3 µM (inactive) | 34.4 µM (inactive) | 13.6 µM (inactive) | 22.8 µM (inactive) | 4.84 µM (inactive) | 56.2 µM (inactive)
Fc1cc(-c2cc(-c3ccccc3)no2)c(Cl)cc1Cl | > 33 µM (inactive) | > 35.2 µM (inactive) | 34.5 µM (inactive) | > 32.3 µM (inactive) | 7.69 µM (inactive) | 29.4 µM (inactive) | 16.2 µM (inactive) | 23.1 µM (inactive) | 4.25 µM (inactive) | 11.4 µM (inactive) | 54.8 µM (inactive) | 21.6 µM (inactive) | 7.11 µM (inactive) | 22.5 µM (inactive) | 23.6 µM (inactive) | 16.4 µM (inactive) | > 32.4 µM (inactive) | > 31.6 µM (inactive) | 13.9 µM (inactive) | > 38.5 µM (inactive)
CC(=O)Oc1c(C)c2c(c3ccccc13)OC(C)(C)C2 | 20.9 µM (inactive) | 17.3 µM (inactive) | 24.2 µM (inactive) | 17.3 µM (inactive) | 17.8 µM (inactive) | 29.2 µM (inactive) | 14.5 µM (inactive) | 16.4 µM (inactive) | 17.5 µM (inactive) | 17.2 µM (inactive) | 21 µM (inactive) | 22.5 µM (inactive) | 20.7 µM (inactive) | 17 µM (inactive) | 18 µM (inactive) | 10.5 µM (inactive) | 18.6 µM (inactive) | 19 µM (inactive) | 17.7 µM (inactive) | 18.2 µM (inactive)
O=C1/C(=C\c2cccc(Oc3ccccc3)c2)S(=O)(=O)C(c2ccccc2)N1c1cc(Cl)ccc1Cl (stereo not given) | 39.2 µM (inactive) | 18.8 µM (inactive) | 24.7 µM (inactive) | 20.9 µM (inactive) | 16.9 µM (inactive) | 3.74 µM (inactive) | 22.9 µM (inactive) | 16.5 µM (inactive) | 4.13 µM (inactive) | 8.13 µM (inactive) | 22.6 µM (inactive) | 20.1 µM (inactive) | 15.5 µM (inactive) | 14.2 µM (inactive) | 28.2 µM (inactive) | 17 µM (inactive) | 16.9 µM (inactive) | 23.9 µM (inactive) | 6.31 µM (inactive) | 16.8 µM (inactive)
